The values below come from patent US9056888B2 (priority 2011, dated 2015).

“Also recorded” adds a separate entry of the source. Read-outs that look alike come from different tables or passages of the source.

One data set relates to HIV-1. The data set can be described thus: Infection inhibition assay, MAGIC-5B indicator cells. Conditions: Table 1. The method, then: The evaluation of HIV-1 inhibition was carried out using MAGIC-5B indicator cells, which stably express the β-galactosidase reporter gene cloned downstream of the HIV-1 LTR promoter. Cells were plated at 8×10^4 cells per well, in 24-well plates and exposed to HIV-1 (x ng p24). Forty-eight hours post-infection, viral infectivity was monitored by quantification of o-nitrophenyl β-D-galactopyranoside hydrolysis from cell lysates (kit). β-galactosidase activity was normalized according to total protein content in the cell lysate. Control wells containing virus and cells only (no drug) and cells only (no virus or drug) were also prepared.

Data set [1] is described as follows: Cytotoxicity, MTT assay (Table 2). The data set is classed as cell-based. Conditions: for CC50: MTT assay, mean. The method, then: The cellular toxicity of the different compounds was evaluated using the MTT assays. […] The selectivity index (SI) was defined as the CC50 to IC50 ratio.
A general note: Tetrazolium assays rely on reduction of a dye to a coloured formazan, in cell work by metabolically active cells.

Data set [2] in a line: Cytotoxicity, MTT assay (Table 1). The data set is classed as cell-based. Conditions: mean. The protocol: The cellular toxicity of the different compounds was evaluated using the MTT assays. […] The selectivity index (SI) was defined as the ratio CC50: IC50 (Table 1).
Data set [3] deals with HIV-1 VLP assembly (Pr55Gag). Put plainly: microbe, parasite or virus in culture. Conditions: for SI (ratio CC50:IC50): Table 2. The data set is classed as cell-based.
Method: Aliquots of Sf9 cells (10^6) were infected with two recombinant baculoviruses at equal multiplicity of infection (MOI of 10 PFU/cell, each). One expressed the HIV-1 Gag precursor (AcMNPV-Pr55Gag or control, p6-deleted AcMNPV-GagΔp6), the other the control Vpr protein (AcMNPV-Vpr) or the LucVpr fusion (AcMNPV-LucVpr). […] To avoid any interference with a possible effect of DMSO, DMSO was kept constant in volume in the different samples. […] Cells were harvested at 48 h pi, and extracellular VLP released in the culture medium were quantitated using luciferase assay. Membrane-enveloped VLP were pelleted and resuspended in lysis KDT buffer (KDT: 0.1M potassium phosphate buffer, pH 7.8, 1 mM DTT, containing 0.2% Triton X100) for 30 min at 37° C. with vortexing every 10 min. Luciferase activity associated with VLP was measured as previously described [10], using a Lumat LB-9501 luminometer (Berthold Technologies, Bad Wildbad, Germany). […] To compensate for eventual negative effects of drugs on LucVpr expression, the luciferase activity was measured in the corresponding cell lysates, obtained after lysis of the pelleted cells with KDT buffer. The results were expressed as relative light units (RLU) per μg protein. The values of the ratio of VLP-associated to intracellular luciferase activity were plotted versus the inhibitor concentration.
Cell culture medium was then harvested at 48 h pi, subjected to the 2-step ultracentrifugation analysis, and each gradient fraction probed for Gag polyprotein and luciferase activity, as above. […] The gradient fractions corresponding to the peak of luciferase activity were pooled, and the VLP contained in these fractions were pelleted, lysed and assayed for luciferase content.
Drug treatment was maintained for a further 24 h, and VLP released in the cell culture medium were pelleted through a sucrose cushion [8]. The amounts of extracellular VLP recovered in the 48 h-pellets obtained in the presence of the different inhibitors were determined using the luciferase assays. After normalization to the luciferase activity determined in the corresponding cell lysates, the values of the ratio of VLP-incorporated to cell-associated luciferase activity were plotted versus the drug concentrations.
For data set [4], the system named is VLP assembly and budding. The data set can be described thus: Electron microscopy of AcMNPV-Gag-infected Sf9 cells. The data set is classed as cell-based, HIV-1. Conditions: 5 and 10 μg/ml for 24 h at 24 h pi. The protocol:
Baculovirus-infected Sf9 cells were harvested at 48 h pi, pelleted, fixed with 2.5% glutaraldehyde in 0.1 M phosphate buffer, pH 7.5, post-fixed with osmium tetroxide (2% in H2O) and treated with 0.5% tannic acid solution in H2O. The specimens were dehydrated and embedded in Epon (Epon-812; Fulham, Latham, N.Y.). Ultrathin sections were stained with 2.6% alkaline lead citrate and 0.5% uranyl acetate in 50% ethanol, and post-stained with 0.5% uranyl acetate solution in H2O [8,9]. Grids were examined under a Jeol JEM-1400 electron microscope, equipped with an ORIUS™ digitalized camera (Gatan France, 78113-Grandchamp). For statistical EM analyses, a minimum of 30 grid squares containing 10 to 20 cell sections each were examined for counting VLP budding at the cell surface, or budding in intracellular vesicular compartment.
By contrast, control, untreated AcMNPV-Gag-infected Sf9 cells were decorated with VLP budding in abundance from the plasma membrane.

A further data set relates to CA-SP1 cleavage. The data set can be described thus: HIV-1 maturation inhibition assay, p25 (CA-SP1) to p24 (CA) processing in virion lysate. The data set is classed as cell-based. Conditions: Western blot (FIG. 2). The method, then:
Two days after transfection, virus-containing supernatants were concentrated by ultracentrifugation through a layer of 20% sucrose at 25 000 rpm for 2 h30. Viral pellets were then resuspended in RIPA lysis buffer [10 mM Tris-HCl (pH 7.4), 1 mM EDTA, 100 mM NaCl, 1% Triton X-100, 0.1% SDS, 0.25% sodium deoxycholate, 0.2% phenylmethylsulfonyl fluoride (PMSF)]. Viral proteins were loaded on a 12.5% SDS-PAGE gel.
To further elucidate the mechanism of action, viral samples used for infection assays were subjected to biochemical characterization (FIG. 2).
For orientation: Immunoblotting shows a protein as a band on a membrane.

Another data set relates to HIV-1 virion morphology. Put plainly: Thin-section electron microscopy of virions from pNL4-3 transfected 293T cells. The data set is classed as cell-based. Particulars: pNL4-3, 5 μg/ml (FIG. 3). The protocol:
Two days after transfection, 293T cells were processed for thin-layer electron microscopy as follows: cells were fixed in situ with 2.5% glutaraldehyde in cacodylate buffer (pH 7.4) for 60 min at 4° C. Cells were then post-fixed with 2% osmium tetroxide, washed in cacodylate buffer containing 0.5% tanic acid, and embedded in epon (Embed-812, Electron Microscopy Sciences Inc.). Sections were counterstained with uranyl acetate and lead citrate and examined with an Hitachi H7100 transmission electron microscope.
In the absence of compounds, cells transfected with pNL4-3 produced virus particles with the classical mature morphology characterized by the presence of condensed, conical cores (FIG. 3A).

Another data set has as its target T1, Pr55Gag (Human immunodeficiency virus type 1 group M subtype B, UniProt P03348).
T1 construct: AcMNPV-Pr55Gag expressed the full-length wild type (WT) Gag polyprotein (Pr55Gag); expressed in transfected cells; host or cells: Spodoptera frugiperda Sf9 cells infected with recombinant baculovirus AcMNPV-Pr55Gag
Put plainly: Chemical cross-linking of intracellular Pr55Gag with BS3. Particulars: Sf9 cells, 10 μg/ml. The data set is classed as cell-based, HIV-1. The method, then: Aliquots of recombinant baculovirus-infected Sf9 cells (5×10^5 cells) untreated or treated with 16 at 10 ug/ml for 24 h at 24 h pi were centrifuged at low speed, resuspended in 200 μl of PBS containing the cross-linker bis(sulfosuccinimidyl)suberate (BS3; Pierce Biotechnology, Rockford, Ill.) at increasing molarities, ranging from 0 to 50 mM [12], and incubated in this buffer for 30 min at room temperature (RT). Cell samples were then centrifuged, resuspended and lysed in 200 μl 0.015 M NaCl, 0.5 mM phosphate buffer pH 7.3 containing BS3 at the same molarites as in the original mixtures, and further incubated for 30 min at RT. Cell lysates were mixed with 30 μl 6 times concentrated (6×) SDS-sample buffer without β-mercaptoethanol, heated to 100° C. for 1 min, and Gag proteins analyzed by SDS-PAGE and immunoblotting. […]
To further analyse the mechanism of the effect of 16 on Gag polyprotein assembly, untreated and 16-treated (10 μg/ml), Pr55Gag-expressing Sf9 cells were incubated with increasing concentrations of the chemical cross-linker BS3 at 48 h pi for 30 min at room temperature, then lysed in hypotonic medium in the presence of BS3 used in the same range of concentrations. The oligomeric status of the Gag proteins was assessed by SDS-PAGE and Western blot analysis, using anti-Gag antibody, peroxidase-labeled complementary antibody and enhanced chemiluminescence (ECL). […]

Another data set relates to HIV-1 VLP. Conditions: read-out: IC50 previously determined using immuno-radiochemical assay of VLP; reference [8]; cited from earlier work.
Data set [5] concerns VLP assembly and budding. Particulars: 10 μg/ml (17 μM), previous study [8]; cited from earlier work.
Setting [6] is: Human immunodeficiency virus 1, read-out: IC50, inhibition of HIV-1 VLP assembly, Sf9 cells, mean.
The mark [7] stands for this setting: Human immunodeficiency virus 1, read-out: IC50, inhibition of HIV-1 VLP assembly, Sf9 cells, mean ± SEM, n = 4.

As usually defined, the CC50 is the concentration that lowers cell viability or growth by half.

As to `C=C(C)[C@@H]1CC[C@]2(C(=O)O)CC[C@]3(C)[C@H](CC[C@@H]4[C@@]5(C)CC[C@H](O)C(C)(C)[C@@H]5CC[C@]43C)[C@@H]12` [BA, betulinic acid, reference compound], in the data set on HIV-1, the “SI (CC50/IC50 ratio)” value stood at 0.85. Besides, the CC50 was found to be 43.8 µM in data set [1] and 4.52 µM in data set [2]. The “SI (ratio CC50:IC50)” value in data set [3] was found to be 1.1.

In the case of `C=C(C)[C@@H]1CC[C@]2(C(=O)NCC(=O)O)CC[C@]3(C)C(CCC4[C@@]5(C)CC[C@H](OC(=O)CC(C)(C)C(=O)O)C(C)(C)C5CC[C@]43C)C12` (stereo partly drawn) [Compound 12, N-[3β-(3-carboxy-3-methylbutanoyloxy)-lup-20,29-en-28-oyl]-glycine], in data set [3] (Sf9 cells, mean, read-out: IC50, inhibition of HIV-1 VLP assembly), the IC50 came to 5.9 µM.

As for `C=C(C)[C@@H]1CC[C@]2(C(=O)NCC(=O)O)CC[C@]3(C)[C@H](CC[C@@H]4[C@@]5(C)CC[C@H](OC(=O)CC(C)(C)C(=O)O)C(C)(C)[C@@H]5CC[C@]43C)[C@@H]12` [Compound 12, N-[3β-(3-carboxy-3-methylbutanoyloxy)-lup-20,29-en-28-oyl]-glycine], in the data set on VLP assembly and budding [4], the “effect on VLP assembly and budding by EM” value was “net inhibitory effect on VLP assembly and budding”. For the same compound, the “SI (CC50/IC50 ratio)” value in the data set with HIV-1 was found to be 309.37. The CC50 in data set [1] came to 31.1 µM; in [2], 49.5 µM. Moreover, the “inhibition of conversion of uncleaved p25 (CA-SP1) to mature p24 (CA)” value (“inhibition of conversion of uncleaved p25 … (CA)” for short) in the data set on CA-SP1 cleavage is reported as “inhibit the CA-SP1 cleavage; also recorded: accumulation of p25 is observed”. In the data set with HIV-1 virion morphology, the “virus morphology / virion maturation by EM” value is on record as “lacked conical cores”. Besides, the IC50 in data set [3] (setting [6]) is 5.9 µM; in [3] (setting [7]) it was 3.8 ± 1.6 µg/mL. For the same compound, the “SI (ratio CC50:IC50)” value in [3] worked out at 5.3.

Consider `C=C(C)[C@@H]1CC[C@]2(C(=O)NC(CCCCNC(=O)OC(C)(C)C)C(=O)O)CC[C@]3(C)[C@H](CC[C@@H]4[C@@]5(C)CC[C@H](OC(=O)CC(C)(C)C(=O)O)C(C)(C)[C@@H]5CC[C@]43C)[C@@H]12` (stereo partly drawn) [Compound 15, N^2—[O^3-(3-carboxy-3-methylbutyryl)betulinyl]-N^6-Boc-L-lysine], for which the “effect on VLP assembly and budding by EM” value with VLP assembly and budding [4] was “net inhibitory effect on VLP assembly and budding”. Further, the “SI (CC50/IC50 ratio)” value with HIV-1 stood at 199.41. Also, the figures for the CC50 in data set [1] and in data set [2] were 24.7 µM and 33 µM, respectively. In the data set on CA-SP1 cleavage, the “inhibition of conversion of uncleaved p25 … (CA)” value is “inhibit the CA-SP1 cleavage; also recorded: accumulation of p25 is observed”. The “virus morphology / virion maturation by EM” value in the data set on HIV-1 virion morphology is reported as “lacked conical cores”. Also, the IC50 is 1.9 µM in [3] (setting [6]) and 1 to 2 µg/mL in data set [3] (setting [7]). Moreover, the “IC50, inhibition of HIV-1 VLP assembly” value in data set [3] (Sf9 cells, mean ± SEM, n = 4) was 1.6 ± 0.5 µg/mL. Besides, in data set [3], the “SI (ratio CC50:IC50)” value came to 13.0.

Take `C=C(C)[C@@H]1CC[C@]2(C(=O)NCCN)CC[C@]3(C)C(CCC4[C@@]5(C)CC[C@H](OC(=O)CC(C)(C)C(=O)O)C(C)(C)C5CC[C@]43C)C12` (stereo partly drawn) [Compound 16, 4-({28-[(2-aminoethyl)amino]-28-oxolup-20,29-en-3β-yl}oxy)-2,2-dimethyl-4-oxobutanoic acid]: in data set [1], the “level of cytotoxicity compared to the other drugs” value is given as “lowest level of cytotoxicity”.

With `C=C(C)[C@@H]1CC[C@]2(C(=O)NCCN)CC[C@]3(C)[C@H](CC[C@@H]4[C@@]5(C)CC[C@H](OC(=O)CC(C)(C)C(=O)O)C(C)(C)[C@@H]5CC[C@]43C)[C@@H]12` [Compound 16, 4-({28-[(2-aminoethyl)amino]-28-oxolup-20,29-en-3β-yl}oxy)-2,2-dimethyl-4-oxobutanoic acid], the CC50 was 120 µM in [1] and 33.9 µM in [2]. The “inhibition of conversion of uncleaved p25 … (CA)” value with CA-SP1 cleavage is “inhibit the CA-SP1 cleavage; also recorded: accumulation of p25 is observed”. For the same compound, the “virus morphology / virion maturation by EM” value in the data set with HIV-1 virion morphology was “lacked conical cores”. Further, the “Gag oligomerization status after BS3 cross-linking” value on Pr55Gag is “favored the occurrence and/or the stability and persistence of Gag trimers”.

For the compound `C=C(C)[C@@H]1CC[C@]2(C(=O)NC(CCCCN)C(=O)O)CC[C@]3(C)[C@H](CC[C@@H]4[C@@]5(C)CC[C@H](OC(=O)CC(C)(C)C(=O)O)C(C)(C)[C@@H]5CC[C@]43C)[C@@H]12` (stereo partly drawn) [Compound 17, N^2-[3β-(3-carboxy-3-methylbutanoyloxy)lup-20,29-en-28-oyl]-L-lysine], the “VLP / particle assembly inhibition (in words)” value in data set [3] (FIG. 6) is “resembled that of 12”.

For `C=C(C)[C@@H]1CC[C@]2(C(=O)O)CC[C@]3(C)[C@H](CC[C@@H]4[C@@]5(C)CC[C@H](OC(=O)CC(C)(C)C(=O)O)C(C)(C)[C@@H]5CC[C@]43C)[C@@H]12` [DSB, 3-O-(3′,3′-dimethylsuccinyl)-betulinic acid, reference compound], in the data set on CA-SP1 cleavage (listed as 2), the “inhibition of conversion of uncleaved p25 … (CA)” value was “inhibit the CA-SP1 cleavage; also recorded: accumulation of p25 is observed”. In the data set on HIV-1 virion morphology, the “virus morphology / virion maturation by EM” value is recorded as “lacked conical cores”. The IC50 in [3] (Human immunodeficiency virus 1, read-out: IC50, VLP formation) is 3.8 to 4.2 µM; in data set [3] (Human immunodeficiency virus 1, read-out: IC50, inhibition of HIV-1 VLP assembly) it was 3 ± 1 µg/mL; in data set [3] (Human immunodeficiency virus 1, read-out: concentration for 50% inhibition of VLP formation), 2.2 to 2.5 µg/mL; in the data set on HIV-1 VLP, 8 to 10 µM. The “effect on VLP budding and egress” value in the data set with VLP assembly and budding [5] was “totally abolished VLP budding and egress”.
